The test system of experiment [1] is Influenza A/Aichi/2/68 virus. Type of experiment: in vivo, BALB/c mice. The following applies: for Percentage Weight Change of Individual Mouse: i.p. 60 nmole/kg for 7 days from weight loss 15% or greater, mice 1-7 = c8-c14.
Experiment [2] concerns serum insulin. The experiment can be described thus: Serum insulin level of diabetic GK rats (ELISA). The following applies: 600 nmole/kg oral, 8 weeks, serum at 30 min of the oral glucose tolerance test, vs control. The experiment is classed as in vivo. The procedure:
Serum from 8 weeks treated animals (as described in EXAMPLE 9) were assayed for insulin concentration by the “Ultra Senstive Rat Insulin ELISA kit” (Crystal Chem. Inc., IL, USA). The values were from serum taken at 30 min of the oral glucose tolerance test.
The diabetic GK rats described in EXAMPLE 9 were similarly treated for another week. At 9 weeks of treatment, animals were fasted overnight and half the animals in each group were intraperitoneally administered with PBS and the other half with insulin (0.5 U/kg). After 30 minutes, the animals were sacrificed by cervical dislocation. Hind limb skeletal muscles were rapidly excised and frozen in liquid nitrogen. Muscle samples were stored at −80° C. until used. The hindlimb muscles were subsequently thawed over an ice pack and plasma membranes were prepared as described by Dombrowaski et al. Thirty μg of protein from the 25% interface of the discontinued sucrose gradient was subjected to SDS-PAGE, transferred to PVDF sheets and incubated with anti-GLUT4 polyclonal primary antibody (1:800), washed and followed by incubation with anti-goat secondary antibody (1:10,000). The bands were detected at 49 kDa. […] As insulin resistance is the hallmark of diabetes, it is concluded that the des-aspartate-angiotensin I exerts marked hypoglycaemic action in diabetic GK rats by overcoming insulin resistance in these animals.

Experiment [3] relates to diabetic GK rats. As to the kind of experiment: Oral glucose tolerance test in diabetic GK rats, oral treatment. The experiment is classed as in vivo. Particulars: 400 or 600 nmole/kg oral daily; for hypoglycaemic action (30 min oral glucose tolerance test): 6 weeks of treatment. As for the experimental part:
The experiment was similarly carried as for KKAy mice. Control animals were administered (by gavage) 0.2 mL of water and groups 1 and 2 animals were similarly administered 400 and 600 nmole/kg des-aspartate-angiotensin I in 0.2 mL water, respectively, for a period 8 weeks. Oral glucose tolerance test (determined at 30 min) was carried out after 4 and 6 weeks of treatment. […] Data obtained after 8 week of treatment are given in another figure, FIG. 4.
Diabetic GK rats were divided into three groups, consisting of six animals in each group. Animals in groups 1 and 2 were administered, by gavage, one of the following: 400 or 600 nmole/kg of des-aspartate-angiotensin I in a volume of 0.2 mL water daily for up to 8 weeks. Control animals in group 3 were similarly administered 0.2 mL water. […] Animals were treated for a further 2 weeks and a full oral glucose tolerance test was performed thereafter.

Values joined by “and” are separate entries in the source; they are usually repeats but may differ in a detail not shown here. Equal values may be shown once. Read-outs that look alike come from different tables or passages of the source.

Consider “des-aspartate-angiotensin I (RVYIHPFHL; Angiotensin-1; UniProt P01019 26-34, looked up, fragment) [endogenous angiotensin peptide derived from angiotensin I by a specific aminopeptidase; purchased from Bachem]”, for which the “Percentage Weight Change of Individual Mouse” value (from here on “Percentage Weight Change”) in experiment [1] (post infection day 2) is 96.3% and 97.1% and 96.6% and 97.3% and 95.8% and 99.3% and 99.8%; in experiment [1] (post infection day 3) it was 90.3% and 94.6% and 88.6% and 94.7% and 93.9% and 99.4% and 99.0%; in experiment [1] (post infection day 4) it was 85.7% and 86.2% and 83.3% and 92.1% and 90.8% and 97.5% and 96.6%; in experiment [1] (post infection day 5), 82.8% and 85.7% and 81.0% and 90.1% and 89.0% and 90.3% and 91.7%; in experiment [1] (post infection day 6), 80.8% and 82.7% and 78.2% and 85.2% and 88.8% and 87.5% and 87.4%; in experiment [1] (post infection day 7) it was 80.7% and 76.8% and 73.9% and 82.8% and 84.4% and 85.0% and 83.8%. The “Percentage Weight Change” value in experiment [1] (post infection day 8) was 79.7% and 72.9% and 71.2% and 83.2% and 82.4% and 86.2% and 80.4%; in experiment [1] (post infection day 9), 81.4% and 69.9% and 71.8% and 80.5% and 78.6% and 90.3% and 78.8%; in experiment [1] (post infection day 10), 80.5% and 69.0% and 73.2% and 82.3% and 77.7% and 93.0% and 77.5%; in experiment [1] (post infection day 11), 82.1% and 67.7% and 75.8% and 88.9% and 74.5% and 99.3% and 77.1%; in experiment [1] (post infection day 12), 80.0% and 64.9% and 80.1% and 88.9% and 74.5% and 101.2% and 78.9%; in experiment [1] (post infection day 13) it was 76.6% and 63.0% and 82.8% and 97.4% and 72.3% and 80.8%. The “Percentage Weight Change” value in experiment [1] (post infection day 14) was 75.2% and 61.3% and 86.3% and 102.8% and 74.0% and 82.6%; in experiment [1] (post infection day 15) it was 83.0% and 58.9% and 90.1% and 76.7% and 84.3%; in experiment [1] (post infection day 16) it was 90.3% and 58.9% and 94.6% and 78.6% and 89.4%; in experiment [1] (post infection day 17), 93.5%. Besides, the “animals survived and regained their original weight” value in experiment [1] (i.p. 60 nmole/kg for 7 days, 7 treated animals) is on record as “Six”. For the same substance, in experiment [1] (i.p. 60 nmole/kg for 7 days, assayed in MDCK cells), the “influenza A virus in the lung homogenate of the surviving mice” value is “No influenza A virus was detected”. The “Fate of individual mouse (death)” value in experiment [1] (i.p. 60 nmole/kg for 7 days, treated mouse 4, post infection day 18) is “died”. Moreover, the “serum level of insulin” value in experiment [2] was “not significantly affected”; in experiment [2] (listed as des-aspartate-angiotesnin I), “no significant difference”. The “hypoglycaemic action (30 min oral glucose tolerance test)” value in experiment [3] was “significant hypoglycaemic action was detected”; in experiment [3] (listed as DAA-1), “exerts hypoglycaemic action”. The “hypoglycaemic action (full oral glucose tolerance test)” value in experiment [3] (8 weeks of treatment) was “significantly expressed”.

These data come from patent publication US7981867B2, “Use of des-aspartate-angiotensin I” (priority 2005, dated 2011).
